We go through nine molecules from patent EP0180850A2, “Antimycotic azolyl-methyl-cyclopropyl-carbinol derivatives” (BAYER AG, priority 1984, dated 1986).

The subject of assay [1] is Dermatophyten, Schimmelpilze, Hefen. The experiment in a line: Antimycotic in-vitro activity, serial dilution test, overall comparison with prior-art compounds. The assay is classed as cell-based. To be noted: compared in words with known compounds (A), (B) and (C). As to the method: Versuchsbeschreibung: • Die in-vitro-Prüfungen wurden im Reihenverdünnungstest mit Keiminokula von durchschnittlich 5 x 10^3 bis 10^4 Keimen/ml Substrat durchgeführt. Als Nährmedium dienten • a) für Dermatophyten und Schimmelpilze: Sabourand's milieu d'epreuve • b) für Hefen: • Fleischextrakt-Traubenzucker-Bouillon.
Die Bebrütungstemperatur betrug 28 bis 37°C, die Bebrütungsdauer lag bei 24 bis 96 Stunden bei Hefen und 96 Stunden bei Dermatophyten und Schimmelpilzen.

Another assay relates to Candida-Zellen. Description: Antimycotic in-vivo activity (oral) in mouse candidosis. More on the design: species or system Mäuse vom Typ SPF-CF1. To be noted: mice infected i.v. with 1-2 x 10^6 Candida cells; oral 10 to 100 mg/kg one hour before and seven hours after infection; survival on day 6 p.i. As for the experimental part:
Versuchsbeschreibung: • Mäuse vom Typ SPF-CF1 wurden intravenös mit-1-2 x 10^6 logarithmisch wachsenden Candida-Zellen, die in physiologischer Kochsalzlösung suspendiert werden, infiziert. Eine Stunde vor und sieben Stunden nach der Infektion werden die Tiere mit jeweils 10 bis 100 mg/kg Körpergewicht der Präparate oral behandelt.
Unbehandelte Tiere starben am 3. bis 6. Tag post infektionem. Die Überlebensrate am 6. Tag post infektionem betrug bei unbehandelten Kontrolltieren etwa 5 %.

`OC(Cn1cncn1)(c1ccc(Cl)cc1)C1(Sc2ccc(Cl)cc2)CC1` (stereo not shown) [I-11]: in assay [1], the “antimykotische Wirkung” value was “bessere antimykotische Wirkung”. With `OC(Cn1cncn1)(c1ccccc1)C1(Oc2ccc(Cl)cc2)CC1` (stereo not shown) [I-2], in the assay on Candida-Zellen, the Wirkung entry is on record as “+++++ (= sehr gute Wirkung = 90 % Überlebende am 6. Tag p.i.)”. Moreover, the “antimykotische Wirkung” value in assay [1] was “bessere antimykotische Wirkung”. For `OC(Cn1cncn1)(c1ccc(Cl)cc1)C1(Oc2ccccc2)CC1` (stereo not shown) [I-5], the Wirkung entry in the assay on Candida-Zellen is reported as “+++++ (= sehr gute Wirkung = 90 % Überlebende am 6. Tag p.i.)”. For the same molecule, in assay [1], the “antimykotische Wirkung” value is given as “bessere antimykotische Wirkung”. In the same order, the values of `CCCCS(=O)(=O)C1(C(O)(Cn2cncn2)c2ccc(Cl)cc2)CC1` (stereo not shown) [I-7] are “+++++ (= sehr gute Wirkung = 90 % Überlebende am 6. Tag p.i.)” and “bessere antimykotische Wirkung”.

For `CCS(=O)(=O)C1(C(O)(Cn2cncn2)c2ccc(Cl)cc2)CC1` (stereo not shown) [I-4], the Wirkung entry with Candida-Zellen is given as “+++ (= Wirkung = 60 % Überlebende am 6. Tag p.i.)”. In assay [1], the “antimykotische Wirkung” value was “bessere antimykotische Wirkung”. For `CC[S+]([O-])C1(C(O)(Cn2cncn2)c2ccc(Cl)cc2)CC1` (stereo not shown) [I-3, 1-(4-Chlorphenyl)-1-[1-(ethylsulfinyl)-1-cyclopropyl]-2-(1,2,4-triazol-1-yl)-1-ethanol] the same measures were “+++++ (= sehr gute Wirkung = 90 % Überlebende am 6. Tag p.i.)” and “bessere antimykotische Wirkung”. For `CCSC1(C(O)(Cn2cncn2)c2ccc(Cl)cc2)CC1` (stereo not shown) [I-1, 1-(4-Chlorphenyl)-1-[1-(ethylthio)-1-cyclopropyl]-2-(1,2,4-triazol-1-yl)-1-ethanol], in the assay on Candida-Zellen, the Wirkung entry was “+++++ (= sehr gute Wirkung = 90 % Überlebende am 6. Tag p.i.)”. Also, the “antimykotische Wirkung” value in assay [1] was “bessere antimykotische Wirkung”.

`OC(Cn1cncn1)(c1ccc(Cl)cc1)C1(SCc2ccc(Cl)cc2)CC1` (stereo not shown) [I-13]: the Wirkung result in the assay on Candida-Zellen is given as “+++++ (= sehr gute Wirkung = 90 % Überlebende am 6. Tag p.i.)”. Turning to `CCCCSC1(C(O)(Cn2cncn2)c2ccc(Cl)cc2)CC1` (stereo not shown) [I-6], in the assay on Candida-Zellen, the Wirkung entry is “++++ (= gute Wirkung = 80 % Überlebende am 6. Tag p.i.)”. In assay [1], the “antimykotische Wirkung” value is reported as “bessere antimykotische Wirkung”.
